The record followed here is patent publication US4361573A, “α,α-Diaryl-β-(tert-amino)-propanols and diuretic pharmaceutical compositions containing them” (Temmler AG, priority 1974, dated 1982).

Molecules are shown by their SMILES. Where two headings read alike, the source gives them in different places.

A short description of data set [1]: comparison of toxicity in mice: oral LD50 by the Lichtfiel & Wilcoxon method. In kind it is in vivo. The conditions noted are these: mouse, in vivo, observation period 7 days, 95% confidence limit in brackets, read-out: LD50. An excerpt:
In Table 3 the mean lethal doses for mice, administered orally (LD50 determination by the […] & WILCOXON method - J.Pharmacol. Exp. Ther. 96,98 (1949)) are compared.

Data set [2] is described as follows: saluretic efficiency test in rats: elimination of water, sodium, chloride and potassium in 6 h urine after oral dosing. The settings on record: for change in vivo at 40 µmol/kg / change in vivo at 80 µmol/kg: Rattus norvegicus; for change in vivo at 40 µmol/kg / change in vivo at 80 µmol/kg / Quotient Na/K: rats, oral. In kind it is in vivo. The procedure: In order to test the saluretic efficiency of the compounds of the invention rats having a weight of 150 to 200 g were used. The animals were kept without food, but not without drinking water, for 15 hours before the beginning of the test. The test substances were administered to groups of four rats, of substantially equal weight, with a rigid stomach probe in a 1% methyl cellulose slime. The dose required per 100 g animal (unit dosage in μmol/kg body weight) was contained in one ml. Following the administration of the substance the rats were given 5 ml 0.9% sodium chloride solution per 100 g body weight p.o. and placed in a diuresis funnel after manually emptying the bladder. Urine was collected for 6 hours in an airconditioned chamber at 24°±1° C. and a relative air humidity of 50±5%. The diuretic effect of a particular dose was tested on at least two, but more frequently however on four to eight groups of rats. Two sodium chloride controls were also used for each test day.
At the end of the collecting periods the volumes of urine discharged per group were noted and the pH value and also the content of sodium, potassium (flame-photometrically) and chloride (measured argentometrically with the determination of the end point potentiometrically) were determined.
From the analysis results the quantities of Na^+, K^+ and Cl^- eliminated were calculated in […] body weight, and the values thus obtained compared with those of the control animals.
Means values and twice the standard deviation were calculated from the data for the sodium chloride controls, in order to determine the normal range. Then, for the values found with the test substances, the percentage variations from the average in respect of these parameters were calculated and tabulated. In this connection, with the results given in Table 1, the upper limit of the normal range, which is defined as the mean value plus twice the standard deviation, was selected as the reference quantity for the variations. In this way relevant hyper-eliminations could clearly be recognised.
In Table 2, the mean percentage variations in potassium elimination after administration of the compounds in accordance with the invention are compared with the mean value of the potassium elimination in the case of the sodium chloride controls. At the same time the […] ratio is given which provides conclusive evidence of the effective saluretic property. The larger this quotient is, then the more sodium than potassium is eliminated in proportion.

Setting [3] is: 6 h, 40 μmol/kg body wt., relative to mean K+ elimination of the controls, read-out: Mean percentage variation in the elimination of potassium.
The mark [4] stands for this setting: 40 μmol/kg body wt., deviation from control mean plus twice the standard deviation, 6 h urine, read-out: Mean percentage variation in the elimination of Chloride.
Where [5] appears, read: 40 μmol/kg body wt., deviation from control mean plus twice the standard deviation, 6 h urine, read-out: Mean percentage variation in the elimination of H2O.
[6] abbreviates: 40 μmol/kg body wt., deviation from control mean plus twice the standard deviation, 6 h urine, read-out: Mean percentage variation in the elimination of Sodium.
Setting [7] is: 80 μmol/kg body wt., deviation from control mean plus twice the standard deviation, 6 h urine, read-out: Mean percentage variation in the elimination of Chloride.
Setting [8] is: 80 μmol/kg body wt., deviation from control mean plus twice the standard deviation, 6 h urine, read-out: Mean percentage variation in the elimination of H2O.
[9] abbreviates: 80 μmol/kg body wt., deviation from control mean plus twice the standard deviation, 6 h urine, read-out: Mean percentage variation in the elimination of Sodium.
[10] abbreviates: 6 h, 80 μmol/kg body wt., relative to mean K+ elimination of the controls, read-out: Mean percentage variation in the elimination of potassium.
Where [11] appears, read: dose of 10 mol/kg body weight, average.

The LD50 is the dose at which mortality reaches 50%. For `CCOc1ccc(C(O)(c2cc(C(C)C)c(OCC)c(C(C)C)c2)C(C)N2CCCCC2)cc1` (stereo not shown) [T 2453, 1-(4'-ethoxy-3',5'-diisopropylphenyl)-1-(4"-ethoxyphenyl)-2-piperidino-propan-1-ol], the median lethal dose (LD50) in data set [1] is 700 mg/kg. Moreover, the change in vivo at 40 µmol/kg in data set [2] (setting [3]) was -2%; in data set [2] (setting [4]) it was 6.9%; in data set [2] (setting [5]), 13.4%; in data set [2] (setting [6]), 7.6%. Moreover, the change in vivo at 80 µmol/kg came out at 31.2% in data set [2] (setting [7]), 51.7% in data set [2] (setting [8]) and 62.2% in data set [2] (setting [9]). Further, the “Quotient Na/K” value is listed as 6.52 in data set [2] (40 μmol/kg body wt.) and 9.63 in data set [2] (80 μmol/kg body wt.).

Turning to `COc1cc(C)c(C(O)(c2ccccc2)C(C)N2CCCCC2)cc1C(C)C` (stereo not shown) [T 1523, 1-(4'-methoxy-2'-methyl-5'-isopropylphenyl)-1-phenyl-2-piperidino-propan-1-ol], in data set [1], the LD50 was greater than 3200 mg/kg. For the same molecule, the change in vivo at 40 µmol/kg in data set [2] (setting [3]) is 25.5%; in data set [2] (setting [4]), -5.1%; in data set [2] (setting [5]), 28.9%; in data set [2] (setting [6]), 13.1%. The change in vivo at 80 µmol/kg in data set [2] (setting [10]) worked out at 13.3%; in data set [2] (setting [7]) it was 14.2%; in data set [2] (setting [8]), 39.6%; in data set [2] (setting [9]), 28.2%. For the same molecule, the figures for the “Quotient Na/K” value in data set [2] (40 μmol/kg body wt.) and in data set [2] (80 μmol/kg body wt.) were 5.35 and 6.72, respectively.

With `CCCC(C)(C)c1cc(C)c(OC)c(C(O)(c2ccccc2)C(C)N2CCCC2)c1` (stereo not shown) [T 2111, 1-(2'-methoxy-3'-methyl-5'-tertiary-hexylphenyl)-1-phenyl-2-pyrrolidino-propan-1-ol], the median lethal dose (LD50) in data set [1] amounted to 4450 mg/kg. The change in vivo at 40 µmol/kg came out at 19.4% in data set [2] (setting [3]), 9.5% in data set [2] (setting [4]), 36.8% in data set [2] (setting [5]) and 33.5% in data set [2] (setting [6]). The change in vivo at 80 µmol/kg in data set [2] (setting [10]) was -7.1%; in data set [2] (setting [7]), 23.4%; in data set [2] (setting [8]) it was 33.8%; in data set [2] (setting [9]), 37.1%. Also, the “Quotient Na/K” value is 6.64 in data set [2] (40 μmol/kg body wt.) and 8.77 in data set [2] (80 μmol/kg body wt.).

With `COc1ccc(C(C)(C)C)cc1C(O)(c1ccccc1)C(C)N1CCCCC1` (stereo not shown) [T 2259, 1-(2'-methoxy-5'-tertiary-butylphenyl)-1-phenyl-2-piperidino-propan-1-ol], in data set [1], the LD50 is 560 mg/kg. The change in vivo at 40 µmol/kg in data set [2] (setting [3]) amounted to 19.4%; in data set [2] (setting [4]), 94%; in data set [2] (setting [5]), 46.5%; in data set [2] (setting [6]), 28.7%. In addition, the change in vivo at 80 µmol/kg in data set [2] (setting [10]) came to 38.8%; in data set [2] (setting [7]), 110%; in data set [2] (setting [8]), 76.6%; in data set [2] (setting [9]), 59.8%. Besides, the “Quotient Na/K” value was found to be 6.40 in data set [2] (40 μmol/kg body wt.) and 6.84 in data set [2] (80 μmol/kg body wt.).

On to `Nc1nc(N)c2nc(-c3ccccc3)c(N)nc2n1` [2.4.7-triamino-6-phenyl-pteridine, reference compound], for which the change in vivo at 40 µmol/kg is -43.9% in data set [2] (setting [3]), -11.7% in data set [2] (setting [4]), -1% in data set [2] (setting [5]) and -4% in data set [2] (setting [6]). The change in vivo at 80 µmol/kg in data set [2] (setting [10]) was -55.1%; in data set [2] (setting [7]), -11.7%; in data set [2] (setting [8]) it was -2%; in data set [2] (setting [9]), -0.2%. For the same molecule, the “Quotient Na/K” value in data set [2] (40 μmol/kg body wt.) amounted to 10.16; in data set [2] (80 μmol/kg body wt.) it was 13.20.

Turning to `COc1c(C)c(C)c(C(O)(c2ccccc2)C(C)N2CCCCC2)c(C)c1C` (stereo not shown) [T 2152, 1-(4'-methoxy-2',3',5',6'-tetramethylphenyl)-1-phenyl-2-piperidino-propane-1-ol], the change in vivo at 40 µmol/kg is 9.2% in data set [2] (setting [3]), 11.6% in data set [2] (setting [4]), 22.9% in data set [2] (setting [5]) and 22.7% in data set [2] (setting [6]). In addition, the change in vivo at 80 µmol/kg in data set [2] (setting [10]) was determined as 9.2%; in data set [2] (setting [7]), 5.6%; in data set [2] (setting [8]), 22.6%; in data set [2] (setting [9]) it was 20.4%. In addition, the results for the “Quotient Na/K” value in data set [2] (40 μmol/kg body wt.) and in data set [2] (80 μmol/kg body wt.) were 6.67 and 6.55, respectively.

For the molecule `COc1c(C)cc(C(O)(c2cc(C(C)C)c(OC)c(C(C)C)c2)C(C)N2CCCCC2)cc1C` (stereo not shown) [T 2266, 1-(4'-methoxy-3',5'-diisopropylphenyl)-1-(4"-methoxy-3",5"-dimethylphenyl)-2-piperidinopropan-1-ol], the median lethal dose (LD50) in data set [1] is greater than 3200 mg/kg. The change in vivo at 40 µmol/kg in data set [2] (setting [3]) is -2%; in data set [2] (setting [4]) it was -13.2%; in data set [2] (setting [5]), -12.9%; in data set [2] (setting [6]), -7.7%. For the same molecule, the change in vivo at 80 µmol/kg turned out to be 4% in data set [2] (setting [10]), 12.2% in data set [2] (setting [7]), 19.7% in data set [2] (setting [8]) and 19.4% in data set [2] (setting [9]). For the same molecule, the “Quotient Na/K” value is given as 5.59 in data set [2] (40 μmol/kg body wt.) and 6.81 in data set [2] (80 μmol/kg body wt.).

On to `COc1ccc(C)cc1C(O)(c1cc(C(C)C)c(OCc2ccccc2)c(C(C)C)c1)C(C)N1CCCCC1` (stereo not shown) [T 2481, 1-(2'-methoxy-5'-methylphenyl)-1-(4"-benzyloxy-3",5"-diisopropylphenyl)-2-piperidino-propan-1-ol], for which, in data set [1], the LD50 is 3780 mg/kg. Further, the change in vivo at 40 µmol/kg in data set [2] (setting [3]) is -4.1%; in data set [2] (setting [4]) it was -7.5%; in data set [2] (setting [5]), 3%; in data set [2] (setting [6]) it was -2.4%. In addition, the change in vivo at 80 µmol/kg was found to be 16.3% in data set [2] (setting [10]), 20% in data set [2] (setting [7]), 34.1% in data set [2] (setting [8]) and 43.8% in data set [2] (setting [9]). In addition, the “Quotient Na/K” value stood at 6.04 in data set [2] (40 μmol/kg body wt.) and 7.34 in data set [2] (80 μmol/kg body wt.).

In the case of `CCOc1ccc(C(O)(c2cc(C(C)C)c(OC)c(C(C)C)c2)C(C)N2CCCCC2)cc1` (stereo not shown) [T 2258, 1-(4'-methoxy-3',5'-diisopropylphenyl)-1-(4"-ethoxyphenyl)-2-piperidino-propan-1-ol], the LD50 in data set [1] is greater than 4500 mg/kg. Besides, the change in vivo at 40 µmol/kg came out at 19.4% in data set [2] (setting [3]), 12.8% in data set [2] (setting [4]), 28.1% in data set [2] (setting [5]) and 22.9% in data set [2] (setting [6]). The change in vivo at 80 µmol/kg in data set [2] (setting [10]) was determined as 1%; in data set [2] (setting [7]), 17.3%; in data set [2] (setting [8]), 32.3%; in data set [2] (setting [9]), 24.6%. Besides, the “Quotient Na/K” value in data set [2] (40 μmol/kg body wt.) is recorded as 6.11; in data set [2] (80 μmol/kg body wt.), 7.32.

As for `C=CCc1cc2c(cc1C(O)(c1ccc(OC)cc1)C(C)N1CCCCC1)OCO2` (stereo not shown) [T 2378, 1-(3',4'-methylenedioxy-6'-allylphenyl)-1-(4"-methoxyphenyl)-2-piperidino-propane-1-ol], the median lethal dose (LD50) in data set [1] was determined as 1600 mg/kg. Besides, the change in vivo at 40 µmol/kg was 11.2% in data set [2] (setting [3]), -5.6% in data set [2] (setting [4]), 6.7% in data set [2] (setting [5]) and 6.7% in data set [2] (setting [6]). The change in vivo at 80 µmol/kg was 32.7% in data set [2] (setting [10]), -20.4% in data set [2] (setting [7]), 39.6% in data set [2] (setting [8]) and 45% in data set [2] (setting [9]). The “Quotient Na/K” value was 5.70 in data set [2] (40 μmol/kg body wt.) and 6.49 in data set [2] (80 μmol/kg body wt.).

Turning to `NS(=O)(=O)c1cc2c(cc1Cl)NCNS2(=O)=O` [6-chloro-3.4.-dihydro-7-sulphamoyl-2H-1.2.4.-benzothiadiazine-1.1.-dioxide, reference compound], the “maximum hyper-elimination, chloride” value in data set [2] (dose of 10 μmol/kg body weight, average) was 17.3%. In data set [2] (setting [11]), the “maximum hyper-elimination, sodium” value was 29.6% and the “maximum hyper-elimination, water” value is reported as 19.9%. Moreover, the “Na/K ratio of the quantities eliminated” value in data set [2] (maximum effective dose, 10 μmol/kg body wt.) was 4.86. For the same molecule, in data set [2] (maximum effective dose, 10 mol/kg body wt.), the hyper-elimination of potassium turned out to be 58.3%.
